Reference: US20100204258A1, “METHODS AND COMPOSITIONS FOR MODULATING INSULIN SECRETION AND GLUCOSE METABOLISM” (The Trustees of Columbia University in the City of New York, priority 2007, published 2010)
“Also recorded” adds a separate entry of the source.

How the values were obtained:
Lewis rats [1] = assay: IPGTT after 2 mg/kg i.v. of VMAT2 ligands (FIG. 10); format: in vivo, rat; details: 2 mg/kg body weight i.v.; for blood glucose excursion during IPGTT: vs vehicle (DMSO)
Experimental: Experimental animals. All animal studies were conducted as described in Example 1.
Anaesthetized rats were administered TBZ, THB, butamol, reserpine, emetine, or Compound 6 at a dose of approximately 2-3 mg/kg body weight by intravenous (i.v.) injection using the penile vein. TBZ, THB, butamol, reserpine, emetine, and Compound 6 were each separately dissolved in neat sterile dimethylsulfoxide (DMSO) and diluted (always more than 10 fold) in sterile saline. Rats received injections of vehicle alone (10% DMSO in saline) or reserpine (in saline). Animals recovered fully before receiving IPGTT.
(§1) Blood glucose, insulin, glucagon and intraperitoneal glucose tolerance tests measurements. Blood samples were collected from a superficial blood vessel in the tails of the rats following 6 hours of fasting between 12:00 noon and 2:00 p.m. The fasting blood glucose (BG) levels of the rats were measured using an Accu-Check blood glucose monitoring system (Roche Diagnostics, Sommerville, N.J.). Intraperitoneal glucose tolerance tests (IPGTT) were performed in 6 hour fasting un-anaesthetized animals. Briefly, after baseline BG measurements, animals received an intraperitoneal (i.p.) injection of 1 gram glucose/kilogram body weight. To minimize stress during the procedure, rats were handled by the same operator during acclimatization and later during weighing and IPGTT. Blood samples (approximately 30 μl) were collected at baseline and then again 15, 30, 45, 60, 90, and 120 minutes following i.p. glucose. BG concentrations were measured immediately on these samples and the remainder processed.

Lewis rats [2] = assay: IPGTT with TBZ, emetine and Compound 6 (FIG. 12); format: in vivo, rat; details: single dose 2-3 mg/kg body weight
Experimental: as §1, with “Experimental animals. All animal studies were conducted as described in Example 1. […] Rats received injections of vehicle alone (10% DMSO in saline) or reserpine (in saline). Animals recovered fully before receiving IPGTT. Blood glucose,” for “Blood glucose,”, “tests measurements. […] The fasting” for “tests measurements. Blood samples were collected from a superficial blood vessel in the tails of the rats following 6 hours of fasting between 12:00 noon and 2:00 p.m. The fasting”

COc1cc2c(cc1OC)C1CC(=O)C(CC(C)C)CN1CC2 (stereo not drawn) [TBZ, tetrabenazine]
blood glucose levels during IPGTT (Lewis rats [1]; around sixty minutes following glucose challenge): returned to control or near normal levels | area under the curve in the IPGTT (Lewis rats [1]; following glucose challenge): smaller area under the curve | blood glucose excursion during IPGTT (Lewis rats [1]): reduce the blood glucose excursion | blood glucose excursion during IPGTT (Lewis rats [1]; listed as Tetrabenazine): reduced the blood glucose excursion | blood glucose excursion during IPGTT (Lewis rats [2]): consistently reduced the blood glucose excursion | area under the curve from IPGTT (Lewis rats [2]; separate experiments): depress the area under the curve; also recorded: consistently suppressed the area under the curve
